Assay results reported in PubChem BioAssay AID1963980 (Molecular Pharmacology Branch, DTP, NCI, 2024).

tested on: 475296-252-R-J1-PDC spheroid viability; experiment: Anticancer human tumor 475296-252-R-J1-PDC patient-derived rectal carcinoma cell line growth inhibition [PI3K]; conditions: second compound 0.316 µM; first compound 0.1 µM; hits give low values; spheroids with HUVEC and MSC
Procedure, shortened: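 Three cell types, namely tumor cells, endothelial cells and mesenchymal stem cells, formed each spheroid. Combinations with four PI3K inhibitors were screened at clinically achievable concentrations decreasing by half-log, and spheroid viability was recorded.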
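Also: spheroids exposed to agents for seven days before readout.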

SMILES | viability, T/C [%]
CC(C)NCC(C(=O)N1CCN(c2ncnc3c2C(C)CC3O)CC1)c1ccc(Cl)cc1 (configuration not stated) + COc1c(OCCCN2CCOCC2)ccc2c3n(c(=NC(=O)c4cnc(N)nc4)nc12)CCN3 | 75
CCN1CCN(Cc2ccc(Nc3ncc(F)c(-c4cc(F)c5nc(C)n(C(C)C)c5c4)n3)nc2)CC1 + COc1c(OCCCN2CCOCC2)ccc2c3n(c(=NC(=O)c4cnc(N)nc4)nc12)CCN3 | 65.3
Cn1ncc(Cl)c1-c1cc(C(=O)NC(CN)Cc2cccc(F)c2)sc1Cl (configuration not stated) + COc1c(OCCCN2CCOCC2)ccc2c3n(c(=NC(=O)c4cnc(N)nc4)nc12)CCN3 | 69.4
Cn1nccc1Nc1nccc(-c2ccn(C(CO)c3ccc(Cl)c(F)c3)c(=O)c2)n1 (configuration not stated) + COc1c(OCCCN2CCOCC2)ccc2c3n(c(=NC(=O)c4cnc(N)nc4)nc12)CCN3 | 78.5

same assay, conditions: second compound 0.316 µM; first compound 0.316 µM; hits give low values; spheroids with HUVEC and MSC

SMILES | viability, T/C [%]
CC(C)NCC(C(=O)N1CCN(c2ncnc3c2C(C)CC3O)CC1)c1ccc(Cl)cc1 (configuration not stated) + COc1c(OCCCN2CCOCC2)ccc2c3n(c(=NC(=O)c4cnc(N)nc4)nc12)CCN3 | 70.2
CCN1CCN(Cc2ccc(Nc3ncc(F)c(-c4cc(F)c5nc(C)n(C(C)C)c5c4)n3)nc2)CC1 + COc1c(OCCCN2CCOCC2)ccc2c3n(c(=NC(=O)c4cnc(N)nc4)nc12)CCN3 | 63
Cn1ncc(Cl)c1-c1cc(C(=O)NC(CN)Cc2cccc(F)c2)sc1Cl (configuration not stated) + COc1c(OCCCN2CCOCC2)ccc2c3n(c(=NC(=O)c4cnc(N)nc4)nc12)CCN3 | 62.1
Cn1nccc1Nc1nccc(-c2ccn(C(CO)c3ccc(Cl)c(F)c3)c(=O)c2)n1 (configuration not stated) + COc1c(OCCCN2CCOCC2)ccc2c3n(c(=NC(=O)c4cnc(N)nc4)nc12)CCN3 | 58.8

same assay, conditions: second compound 0.316 µM; first compound 1 µM; hits give low values; spheroids with HUVEC and MSC

SMILES | viability, T/C [%]
CC(C)NCC(C(=O)N1CCN(c2ncnc3c2C(C)CC3O)CC1)c1ccc(Cl)cc1 (configuration not stated) + COc1c(OCCCN2CCOCC2)ccc2c3n(c(=NC(=O)c4cnc(N)nc4)nc12)CCN3 | 71.4
CCN1CCN(Cc2ccc(Nc3ncc(F)c(-c4cc(F)c5nc(C)n(C(C)C)c5c4)n3)nc2)CC1 + COc1c(OCCCN2CCOCC2)ccc2c3n(c(=NC(=O)c4cnc(N)nc4)nc12)CCN3 | 50
Cn1ncc(Cl)c1-c1cc(C(=O)NC(CN)Cc2cccc(F)c2)sc1Cl (configuration not stated) + COc1c(OCCCN2CCOCC2)ccc2c3n(c(=NC(=O)c4cnc(N)nc4)nc12)CCN3 | 54
Cn1nccc1Nc1nccc(-c2ccn(C(CO)c3ccc(Cl)c(F)c3)c(=O)c2)n1 (configuration not stated) + COc1c(OCCCN2CCOCC2)ccc2c3n(c(=NC(=O)c4cnc(N)nc4)nc12)CCN3 | 43.8

same assay, conditions: second compound 0.316 µM; first compound 3.16 µM; hits give low values; spheroids with HUVEC and MSC

SMILES | viability, T/C [%]
CC(C)NCC(C(=O)N1CCN(c2ncnc3c2C(C)CC3O)CC1)c1ccc(Cl)cc1 (configuration not stated) + COc1c(OCCCN2CCOCC2)ccc2c3n(c(=NC(=O)c4cnc(N)nc4)nc12)CCN3 | 62.7
Cn1ncc(Cl)c1-c1cc(C(=O)NC(CN)Cc2cccc(F)c2)sc1Cl (configuration not stated) + COc1c(OCCCN2CCOCC2)ccc2c3n(c(=NC(=O)c4cnc(N)nc4)nc12)CCN3 | 39.5
Cn1nccc1Nc1nccc(-c2ccn(C(CO)c3ccc(Cl)c(F)c3)c(=O)c2)n1 (configuration not stated) + COc1c(OCCCN2CCOCC2)ccc2c3n(c(=NC(=O)c4cnc(N)nc4)nc12)CCN3 | 7.08

same assay, conditions: second compound 0.316 µM; first compound 10 µM; hits give low values; spheroids with HUVEC and MSC

SMILES | viability, T/C [%]
CC(C)NCC(C(=O)N1CCN(c2ncnc3c2C(C)CC3O)CC1)c1ccc(Cl)cc1 (configuration not stated) + COc1c(OCCCN2CCOCC2)ccc2c3n(c(=NC(=O)c4cnc(N)nc4)nc12)CCN3 | 59.7
Cn1ncc(Cl)c1-c1cc(C(=O)NC(CN)Cc2cccc(F)c2)sc1Cl (configuration not stated) + COc1c(OCCCN2CCOCC2)ccc2c3n(c(=NC(=O)c4cnc(N)nc4)nc12)CCN3 | 22.5
Cn1nccc1Nc1nccc(-c2ccn(C(CO)c3ccc(Cl)c(F)c3)c(=O)c2)n1 (configuration not stated) + COc1c(OCCCN2CCOCC2)ccc2c3n(c(=NC(=O)c4cnc(N)nc4)nc12)CCN3 | 3.11

same assay, conditions: second compound 1 µM; first compound 0.00316 µM; hits give low values; spheroids with HUVEC and MSC

SMILES | viability, T/C [%]
CCN1CCN(Cc2ccc(Nc3ncc(F)c(-c4cc(F)c5nc(C)n(C(C)C)c5c4)n3)nc2)CC1 + COc1c(OCCCN2CCOCC2)ccc2c3n(c(=NC(=O)c4cnc(N)nc4)nc12)CCN3 | 62.8

same assay, conditions: second compound 1 µM; first compound 0.01 µM; hits give low values; spheroids with HUVEC and MSC

SMILES | viability, T/C [%]
CCN1CCN(Cc2ccc(Nc3ncc(F)c(-c4cc(F)c5nc(C)n(C(C)C)c5c4)n3)nc2)CC1 + COc1c(OCCCN2CCOCC2)ccc2c3n(c(=NC(=O)c4cnc(N)nc4)nc12)CCN3 | 58.2

same assay, conditions: second compound 1 µM; first compound 0.0316 µM; hits give low values; spheroids with HUVEC and MSC

SMILES | viability, T/C [%]
CC(C)NCC(C(=O)N1CCN(c2ncnc3c2C(C)CC3O)CC1)c1ccc(Cl)cc1 (configuration not stated) + COc1c(OCCCN2CCOCC2)ccc2c3n(c(=NC(=O)c4cnc(N)nc4)nc12)CCN3 | 60.4
CCN1CCN(Cc2ccc(Nc3ncc(F)c(-c4cc(F)c5nc(C)n(C(C)C)c5c4)n3)nc2)CC1 + COc1c(OCCCN2CCOCC2)ccc2c3n(c(=NC(=O)c4cnc(N)nc4)nc12)CCN3 | 63.6
Cn1ncc(Cl)c1-c1cc(C(=O)NC(CN)Cc2cccc(F)c2)sc1Cl (configuration not stated) + COc1c(OCCCN2CCOCC2)ccc2c3n(c(=NC(=O)c4cnc(N)nc4)nc12)CCN3 | 61.4
Cn1nccc1Nc1nccc(-c2ccn(C(CO)c3ccc(Cl)c(F)c3)c(=O)c2)n1 (configuration not stated) + COc1c(OCCCN2CCOCC2)ccc2c3n(c(=NC(=O)c4cnc(N)nc4)nc12)CCN3 | 54.9

same assay, conditions: second compound 1 µM; first compound 0.1 µM; hits give low values; spheroids with HUVEC and MSC

SMILES | viability, T/C [%]
CC(C)NCC(C(=O)N1CCN(c2ncnc3c2C(C)CC3O)CC1)c1ccc(Cl)cc1 (configuration not stated) + COc1c(OCCCN2CCOCC2)ccc2c3n(c(=NC(=O)c4cnc(N)nc4)nc12)CCN3 | 56
CCN1CCN(Cc2ccc(Nc3ncc(F)c(-c4cc(F)c5nc(C)n(C(C)C)c5c4)n3)nc2)CC1 + COc1c(OCCCN2CCOCC2)ccc2c3n(c(=NC(=O)c4cnc(N)nc4)nc12)CCN3 | 55.8
Cn1ncc(Cl)c1-c1cc(C(=O)NC(CN)Cc2cccc(F)c2)sc1Cl (configuration not stated) + COc1c(OCCCN2CCOCC2)ccc2c3n(c(=NC(=O)c4cnc(N)nc4)nc12)CCN3 | 53.8
Cn1nccc1Nc1nccc(-c2ccn(C(CO)c3ccc(Cl)c(F)c3)c(=O)c2)n1 (configuration not stated) + COc1c(OCCCN2CCOCC2)ccc2c3n(c(=NC(=O)c4cnc(N)nc4)nc12)CCN3 | 51.5

same assay, conditions: second compound 1 µM; first compound 0.316 µM; hits give low values; spheroids with HUVEC and MSC

SMILES | viability, T/C [%]
CC(C)NCC(C(=O)N1CCN(c2ncnc3c2C(C)CC3O)CC1)c1ccc(Cl)cc1 (configuration not stated) + COc1c(OCCCN2CCOCC2)ccc2c3n(c(=NC(=O)c4cnc(N)nc4)nc12)CCN3 | 67
CCN1CCN(Cc2ccc(Nc3ncc(F)c(-c4cc(F)c5nc(C)n(C(C)C)c5c4)n3)nc2)CC1 + COc1c(OCCCN2CCOCC2)ccc2c3n(c(=NC(=O)c4cnc(N)nc4)nc12)CCN3 | 56
Cn1ncc(Cl)c1-c1cc(C(=O)NC(CN)Cc2cccc(F)c2)sc1Cl (configuration not stated) + COc1c(OCCCN2CCOCC2)ccc2c3n(c(=NC(=O)c4cnc(N)nc4)nc12)CCN3 | 67.8
Cn1nccc1Nc1nccc(-c2ccn(C(CO)c3ccc(Cl)c(F)c3)c(=O)c2)n1 (configuration not stated) + COc1c(OCCCN2CCOCC2)ccc2c3n(c(=NC(=O)c4cnc(N)nc4)nc12)CCN3 | 42.6

same assay, conditions: second compound 1 µM; first compound 1 µM; hits give low values; spheroids with HUVEC and MSC

SMILES | viability, T/C [%]
CC(C)NCC(C(=O)N1CCN(c2ncnc3c2C(C)CC3O)CC1)c1ccc(Cl)cc1 (configuration not stated) + COc1c(OCCCN2CCOCC2)ccc2c3n(c(=NC(=O)c4cnc(N)nc4)nc12)CCN3 | 63.5
CCN1CCN(Cc2ccc(Nc3ncc(F)c(-c4cc(F)c5nc(C)n(C(C)C)c5c4)n3)nc2)CC1 + COc1c(OCCCN2CCOCC2)ccc2c3n(c(=NC(=O)c4cnc(N)nc4)nc12)CCN3 | 55.2
Cn1ncc(Cl)c1-c1cc(C(=O)NC(CN)Cc2cccc(F)c2)sc1Cl (configuration not stated) + COc1c(OCCCN2CCOCC2)ccc2c3n(c(=NC(=O)c4cnc(N)nc4)nc12)CCN3 | 42.4
Cn1nccc1Nc1nccc(-c2ccn(C(CO)c3ccc(Cl)c(F)c3)c(=O)c2)n1 (configuration not stated) + COc1c(OCCCN2CCOCC2)ccc2c3n(c(=NC(=O)c4cnc(N)nc4)nc12)CCN3 | 29.2

same assay, conditions: second compound 1 µM; first compound 3.16 µM; hits give low values; spheroids with HUVEC and MSC

SMILES | viability, T/C [%]
CC(C)NCC(C(=O)N1CCN(c2ncnc3c2C(C)CC3O)CC1)c1ccc(Cl)cc1 (configuration not stated) + COc1c(OCCCN2CCOCC2)ccc2c3n(c(=NC(=O)c4cnc(N)nc4)nc12)CCN3 | 55.8
Cn1ncc(Cl)c1-c1cc(C(=O)NC(CN)Cc2cccc(F)c2)sc1Cl (configuration not stated) + COc1c(OCCCN2CCOCC2)ccc2c3n(c(=NC(=O)c4cnc(N)nc4)nc12)CCN3 | 36.1
Cn1nccc1Nc1nccc(-c2ccn(C(CO)c3ccc(Cl)c(F)c3)c(=O)c2)n1 (configuration not stated) + COc1c(OCCCN2CCOCC2)ccc2c3n(c(=NC(=O)c4cnc(N)nc4)nc12)CCN3 | 10

same assay, conditions: second compound 1 µM; first compound 10 µM; hits give low values; spheroids with HUVEC and MSC

SMILES | viability, T/C [%]
CC(C)NCC(C(=O)N1CCN(c2ncnc3c2C(C)CC3O)CC1)c1ccc(Cl)cc1 (configuration not stated) + COc1c(OCCCN2CCOCC2)ccc2c3n(c(=NC(=O)c4cnc(N)nc4)nc12)CCN3 | 38.2
Cn1ncc(Cl)c1-c1cc(C(=O)NC(CN)Cc2cccc(F)c2)sc1Cl (configuration not stated) + COc1c(OCCCN2CCOCC2)ccc2c3n(c(=NC(=O)c4cnc(N)nc4)nc12)CCN3 | 16.4
Cn1nccc1Nc1nccc(-c2ccn(C(CO)c3ccc(Cl)c(F)c3)c(=O)c2)n1 (configuration not stated) + COc1c(OCCCN2CCOCC2)ccc2c3n(c(=NC(=O)c4cnc(N)nc4)nc12)CCN3 | 5.49
